# Experimental data as given in US20090318399A1, “PHARMACEUTICAL COMPOSITION AND EXTRACT OF PORIA FOR TREATING A DISEASE INDUCED FROM IMMUNE DISORDER” (Sinphar Pharmaceutical Co., Ltd., priority 2008, published 2009).
# Tested on: immune cells in BALF of OVA-sensitized mice
# Experiment: Percentage of subpopulation of immune cells in BALF
# Format: in vivo, BALB/c mice
# Conditions: Pred group: 0.1 mg Prednisolone per day for 5 days; % of total BALF cells; mean±SD
# Source text: In this example the mice were induced to become allergic by using ovalbumin (OVA) as an allergen, and the mice were confirmed suffering the induced asthma from the appearance of OVE-specific IgE antibody in the mice. Mice in different groups were fed with a Poria extract or pure lanostane compound during the experimental period, and each mouse was subjected to an airway hyperresponsiveness test after one-month feeding, from which an important index reflecting the severe degree of the asthma of the mouse was determined. In this example different immune cells in bronchoalveolar lavage fluid (BALF) of the mice were also observed as to whether they particularly eosinophils and neutrophils were affected. Further, a chemoattractant factor, Eotaxin, was an important observation factor in this example for observing whether the secretion of cytokines changed dramatically.
# (1) Experimental animal: Inbred BALB/c female mice were maintained by standard laboratory chow ad libitum. Room temperature was maintained at 19-24° C. and relative humidity at 50-70%. […]
# As all groups of mice had finished of AHR analysis, they were sacrificed on next day. […] The total cell numbers were determined with 0.5 ml CM-10, wherein the density of cells was adjusted to 3×10^5 cells/ml. […] Two hundreds of leukocytes were counted on each slide, which includes four different cells, eosinophil, neutrophil, lymphocyte and monocyte. […]
compound,measurement,value
"C[C@]12C=CC(=O)C=C1CC[C@@H]1[C@@H]2[C@@H](O)C[C@@]2(C)[C@H]1CC[C@]2(O)C(=O)CO [Pred, Prednisolone]",Monocyte % in BALF,13.3 ± 7.8%
same,Neutrophil % in BALF,0.8 ± 0.8%
